Data from patent US9273006B2, “Anabolic compounds for treating and preventing bone loss diseases” (SYDDANSK UNIVERSITET, priority 2012, dated 2016).
Like-named read-outs stand apart in the source and are kept apart here.

System: hMSC-TERT
Conditions: 6 days after induction, hMSC-TERT
[1] = 1 μM inhibitor in osteogenic inducing media
[2] = 10 μM inhibitor in osteogenic inducing media

O=C1Cc2c([nH]c3ccc(Br)cc23)-c2ccccc2N1 [Kenpaullone]
Relative ALP activity [1]: 0.5044
Relative ALP activity [2]: 0.2055

C/C(O)=C(\C#N)C(=O)Nc1cc(Br)ccc1Br [LFM-A13]
Relative ALP activity [1]: 0.7381
Relative ALP activity [2]: 0.9154

O=c1cc(N2CCOCC2)oc2c(-c3ccccc3)cccc12 [LY 294002]
Relative ALP activity [1]: 0.8628
Relative ALP activity [2]: 0.439

O=C(O)c1cc(N(Cc2ccccc2O)Cc2cc(O)ccc2O)ccc1O [Lavendustin A]
Relative ALP activity [1]: 0.8641
Relative ALP activity [2]: 0.4935

O=S(=O)(c1cccc2c(I)cccc12)N1CCCNCC1 [ML-7]
Relative ALP activity [1]: 1.031
Relative ALP activity [2]: 0.9564

O=S(=O)(c1cccc2c(Cl)cccc12)N1CCCNCC1 [ML-9]
Relative ALP activity [1]: 0.9822
Relative ALP activity [2]: 0.6879

CC(C)n1cnc2c(NCc3ccccc3)nc(NCCO)nc21 [N9-Isopropyl-olomoucine]
Relative ALP activity [1]: 1.128
Relative ALP activity [2]: 0.6666

Cn1cnc2c(NCc3ccccc3)nc(NCCO)nc21 [Olomoucine]
Relative ALP activity [1]: 1.142
Relative ALP activity [2]: 0.5408

COc1cccc(-c2cc(=O)c3ccccc3o2)c1N [PD-98059]
Relative ALP activity [1]: 0.5617
Relative ALP activity [2]: 0.6017

Cc1ccc(-c2nn(C(C)(C)C)c3ncnc(N)c23)cc1 [PP1]
Relative ALP activity [1]: 0.9626
Relative ALP activity [2]: 0.5665

CC(C)(C)n1nc(-c2ccc(Cl)cc2)c2c(N)ncnc21 [PP2]
Relative ALP activity [1]: 0.8276
Relative ALP activity [2]: 0.4269

Oc1cc(O)cc(/C=C/c2ccc(O)c(O)c2)c1 [Piceatannol]
Relative ALP activity [1]: 0.783
Relative ALP activity [2]: 0.4885

O.O.O=c1c(O)c(-c2ccc(O)c(O)c2)oc2cc(O)cc(O)c12 [Quercetin dihydrate]
Relative ALP activity [1]: 1.001
Relative ALP activity [2]: 0.8354

N#C/C(=C\c1cc(Cl)cc(Cl)c1)c1cccnc1 [RG-14620]
Relative ALP activity [1]: 0.8302
Relative ALP activity [2]: 1.024

CO[C@H]1C[C@@H]2CC[C@@H](C)[C@@](O)(O2)C(=O)C(=O)N2CCCC[C@H]2C(=O)O[C@H]([C@H](C)C[C@@H]2CC[C@@H](O)[C@H](OC)C2)CC(=O)[C@H](C)/C=C(\C)[C@@H](O)[C@@H](OC)C(=O)[C@H](C)C[C@H](C)/C=C/C=C/C=C/1C [Rapamycin]
Relative ALP activity [1]: 0.509
Relative ALP activity [2]: 0.6057

Cn1cc(C2=C(c3cn(CCCSC(=N)N)c4ccccc34)C(=O)NC2=O)c2ccccc21 [Ro 31-8220]
Relative ALP activity [1]: 0.3607
Relative ALP activity [2]: Toxic

CC[C@H](CO)Nc1nc(NCc2ccccc2)c2ncn(C(C)C)c2n1 [Roscovitine]
Relative ALP activity [1]: 0.9865
Relative ALP activity [2]: 0.3918

CC(=O)c1c(O)c(C)c(O)c(Cc2c(O)c3c(c(C(=O)/C=C/c4ccccc4)c2O)OC(C)(C)C=C3)c1O [Rottlerin]
Relative ALP activity [1]: 0.3874
Relative ALP activity [2]: Toxic

Oc1ccc(-c2nc(-c3ccc(F)cc3)c(-c3ccncc3)[nH]2)cc1 [SB-202190]
Relative ALP activity [1]: 0.7708
Relative ALP activity [2]: 0.2703

C[S+]([O-])c1ccc(-c2nc(-c3ccc(F)cc3)c(-c3ccncc3)[nH]2)cc1 (stereo not drawn) [SB-203580]
Relative ALP activity [1]: 0.824
Relative ALP activity [2]: 0.458

Oc1c2ccccc2c2c3c(cccc13)N=N2 [SP 600125]
Relative ALP activity [1]: 0.5978
Relative ALP activity [2]: 0.2913

CC(C)c1cc(/C=C(\C#N)C(=O)NCCCc2ccccc2)cc(C(C)C)c1O [SU1498]
Relative ALP activity [1]: 0.8711
Relative ALP activity [2]: 0.7853

CN(C)c1ccc(/C=C2\C(=O)Nc3ccccc32)cc1 [SU 4312]
Relative ALP activity [1]: 0.7481
Relative ALP activity [2]: 0.5349

CCCCCCCCCCCCC/C=C/[C@@H](O)[C@@H](N)CO [Sphingosine]
Relative ALP activity [1]: 1.195
Relative ALP activity [2]: Toxic

CN[C@@H]1C[C@H]2O[C@@](C)([C@@H]1OC)n1c3ccccc3c3c4c(c5c6ccccc6n2c5c31)C(=O)NC4 [Staurosporine]
Relative ALP activity [1]: TOXIC
Relative ALP activity [2]: Toxic

CC1=C(O)C(=O)[C@@H]2O[C@@H]2C1=O [Terreic acid]
Relative ALP activity [1]: 0.2721
Relative ALP activity [2]: 0.338

CC(C)(C)c1cc(C=C(C#N)C#N)cc(C(C)(C)C)c1O [Tyrphostin9]
Relative ALP activity [1]: 0.3388
Relative ALP activity [2]: Toxic

N#CC(C#N)=Cc1ccc(O)c(O)c1 [Tyrphostin 23]
Relative ALP activity [1]: 0.9904
Relative ALP activity [2]: 0.7067

N#CC(C#N)=Cc1cc(O)c(O)c(O)c1 [Tyrphostin 25]
Relative ALP activity [1]: 0.9397
Relative ALP activity [2]: 0.8233

N#C/C(=C\c1ccc(O)c(O)c1)C(N)=O [Tyrphostin 46]
Relative ALP activity [1]: 1.179
Relative ALP activity [2]: 0.9029

N#C/C(=C\c1ccc(O)c(O)c1)C(N)=S [Tyrphostin 47]
Relative ALP activity [1]: 0.901
Relative ALP activity [2]: 1.005

N#CC(C#N)=C(N)/C(C#N)=C/c1cc(O)c(O)c(O)c1 [Tyrphostin 51]
Relative ALP activity [1]: 0.8997
Relative ALP activity [2]: 0.8566

N#CC(C#N)=Cc1cc(O)c(O)c([N+](=O)[O-])c1 [Tyrphostin AG 1288]
Relative ALP activity [1]: 0.8684
Relative ALP activity [2]: 0.802
